Results published in ChEMBL document CHEMBL1135376, “Synthesis of an immunoconjugate of camptothecin” (Bioorg Med Chem Lett, 2002).

Tests used:
[1] = Compound was evaluated for its stability and enzymatic cleavage of dipeptide linker at pH 7, 37 degree C.; 5-6 h; assay type: ADME
[2] = Compound was evaluated for its stability and enzymatic cleavage of dipeptide linker at pH5, 37 degree C.; 5-6 h; assay type: ADME; settings: pH 5
[3] = Compound was evaluated for its stability and enzymatic cleavage of dipeptide linker at pH5, 37 degree C.; assay type: ADME; settings: pH 5
L2987 = test: Compound was evaluated for antigen specific activity in vitro L2987 cell line; assay type: functional, cell-based; settings: Homo sapiens

half-life [1] [h]	half-life [2] [h]	half-life [3] [min]	SMILES	IC50 (L2987) [nM]
6	6	< 2	CC[C@]1(OC(=O)OCc2ccc(NC(=O)[C@H](CCCCN)NC(=O)[C@H](Cc3ccccc3)NC(=O)CCCCCN3C(=O)CC(SCCO)C3=O)cc2)C(=O)OCc2c1cc1n(c2=O)Cc2cc3ccccc3nc2-1 (some centres undefined)	
			CC[C@@]1(O)C(=O)OCc2c1cc1n(c2=O)Cc2cc3ccccc3nc2-1 [CAMPTOTHECIN]	400
